Results published in publication PMC6199744, “Development of Chemical Proteomics for the Folateome and Analysis of the Kinetoplastid Folateome” (ACS Infectious Diseases, 2018).
Like-named read-outs stand apart in the source and are kept apart here.

Tested on: T. brucei lysate proteins
Assay type: binding, Trypanosoma brucei

CCCCCCOc1cccc(Cc2cnc(N)nc2N)c1 [compound 2]
fold change (relative to vehicle control = 1, protein TB09.160.3270 ATP-DEPENDENT DEAD BOX HELICASE, PUTATIVE): 1 | fold change (relative to vehicle control = 1, protein TB09.160.4250 TR[…]): 0.99 | fold change (relative to vehicle control = 1, protein TB09.211.3540 GLYCEROL KINASE, GLYCOSOMAL): 0.98 | fold change (relative to vehicle control = 1, protein TB11.01.1290 14-3-3-I PROTEIN): 0.88 | fold change (relative to vehicle control = 1, protein TB11.02.0730 METACASPASE): 1.1 | fold change (relative to vehicle control = 1, protein TB11.02.4700 14-3-3 PROTEIN): 1 | fold change (relative to vehicle control = 1, protein TB11.03.0815 DYNEIN LIGHT CHAIN): 0.94 | fold change (relative to vehicle control = 1, protein TB11.50.0007 DYNEIN LIGHT CHAIN LC8, PUTATIVE): 0.99 | fold change (relative to vehicle control = 1, protein TB427TMP.01.1830 HY[…], CONSERVED): 1 | fold change (relative to vehicle control = 1, protein TB427TMP.01.6880 CYTOSOLIC COAT PROTEIN, PUTATIVE): 1 | fold change (relative to vehicle control = 1, protein TB427TMP.01.7490 HY[…], CONSERVED): 0.96 | fold change (relative to vehicle control = 1, protein TB427TMP.01.7530 HY[…], CONSERVED): 0.98 | fold change (relative to vehicle control = 1, protein TB427TMP.02.1460 HY[…], CONSERVED): 0.95 | fold change (relative to vehicle control = 1, protein TB427TMP.02.2120 NUCLEOPORIN 48): 0.94 | fold change (relative to vehicle control = 1, protein TB427TMP.02.2970 KINESIN, PUTATIVE): 0.89 | fold change (relative to vehicle control = 1, protein TB427TMP.02.3120 MALIC ENZYME, PUTATIVE): 0.98 | fold change (relative to vehicle control = 1, protein TB427TMP.02.4550 HY[…], CONSERVED): 0.99 | fold change (relative to vehicle control = 1, protein TB427TMP.02.5450 GLUCOSE-REGULATED PROTEIN 78, PUTATIVE): 0.98 | fold change (relative to vehicle control = 1, protein TB427TMP.02.5660 HY[…], CONSERVED): 0.85 | fold change (relative to vehicle control = 1, protein TB427TMP.03.0090 RIBOKINASE, PUTATIVE): 0.93 | fold change (relative to vehicle control = 1, protein TB427TMP.03.0460 HY[…], CONSERVED): 0.99 | fold change (relative to vehicle control = 1, protein TB427TMP.160.4770 PROTEIN KINASE, PUTATIVE): 1 | fold change (relative to vehicle control = 1, protein TB427TMP.160.4910 FLAVOPROTEIN MONOOXYGENASE, PUTATIVE): 0.93 | fold change (relative to vehicle control = 1, protein TB427TMP.18.0005 HY[…], CONSERVED): 0.95 | fold change (relative to vehicle control = 1, protein TB427TMP.39.0006 T[…] EIF2B DELTA SUBUNIT, PUTATIVE): 0.96 | fold change (relative to vehicle control = 1, protein TB427.01.4050 PROTEIN P[…] EF-HAND DOMAINS (PPEF)): 0.95 | fold change (relative to vehicle control = 1, protein TB427.03.3160 POLY(A) POLYMERASE): 0.78 | fold change (relative to vehicle control = 1, protein TB427.03.3560 HY[…], CONSERVED): 0.98 | fold change (relative to vehicle control = 1, protein TB427.03.5420 PROTEIN TRANSPORT PROTEIN SEC24): 0.94 | fold change (relative to vehicle control = 1, protein TB427.04.1510 PHOSPHOLIPID-TRA[…], PUTATIVE): 0.93 | fold change (relative to vehicle control = 1, protein TB427.05.1320 HY[…], CONSERVED): 0.93 | fold change (relative to vehicle control = 1, protein TB427.05.2320 HY[…], CONSERVED): 0.8 | fold change (relative to vehicle control = 1, protein TB427.05.300 THYMINE-7-HYDROXYLASE, PUTATIVE): 0.92 | fold change (relative to vehicle control = 1, protein TB427.05.3800 GLUTAMINE HYDROLYSING (NOT AMMONIA-DEPENDENT) […] PHOSPHATE SYNTHASE, PUTATIVE): 0.85 | fold change (relative to vehicle control = 1, protein TB427.06.2550 RNA-BINDING PROTEIN, PUTATIVE): 0.84 | fold change (relative to vehicle control = 1, protein TB427.06.3650 ADP-RI[…], PUTATIVE): 0.97 | fold change (relative to vehicle control = 1, protein TB427.06.3860 HY[…], CONSERVED): 0.94 | fold change (relative to vehicle control = 1, protein TB427.07.2570 MRNA […], PUTATIVE): 0.89 | fold change (relative to vehicle control = 1, protein TB427.08.3150 T-COMPLEX PROTEIN 1, GAMMA SUBUNIT, PUTATIVE): 0.92 | fold change (relative to vehicle control = 1, protein TB427.08.3490 HY[…], CONSERVED): 1.2 | fold change (relative to vehicle control = 1, protein TB427.08.5460 FLAGELLAR CALCIUM-BINDING PROTEIN): 0.93 | fold change (relative to vehicle control = 1, protein TB427.08.5760 HY[…], CONSERVED): 0.96 | fold change (relative to vehicle control = 1, protein TB427.08.6110 HY[…], CONSERVED): 0.87 | fold change (relative to vehicle control = 1, protein TB427.10.11930 NAD OR NADP DEPENDENT OXIDOREDUCTASE, PUTATIVE): 0.92 | fold change (relative to vehicle control = 1, protein TB427.10.13880 HY[…], CONSERVED): 0.96 | fold change (relative to vehicle control = 1, protein TB427.10.14140 PYRUVATE KINASE 1): 1.1 | fold change (relative to vehicle control = 1, protein TB427.10.14910 SA[…] GLYCOPROTEIN, PUTATIVE): 0.99 | fold change (relative to vehicle control = 1, protein TB427.10.15180 […] PROTEIN, PUTATIVE): 0.88 | fold change (relative to vehicle control = 1, protein TB427.10.2350 PYRUVATE DEH[…] E3 BINDING PROTEIN, PUTATIVE): 0.77 | fold change (relative to vehicle control = 1, protein TB427.10.4940 NUCLEAR DBF2-RELATED KINASE): 1 | fold change (relative to vehicle control = 1, protein TB427.10.7630 HY[…], CONSERVED): 1 | fold change (relative to vehicle control = 1, protein TB927.10.12840 MIT[…] PROTEIN, PUTATIVE): 0.98 | fold change (relative to vehicle control = 1, protein TB927.10.14980 INTR[…] PROTEIN IFT52, PUTATIVE): 0.98 | fold change (relative to vehicle control = 1, protein TB927.1.2400 ALPHA TUBULIN): 1 | fold change (relative to vehicle control = 1, protein TB927.10.4180 TFIIF-[…] PHOSPHATASE, PUTATIVE): 0.94 | fold change (relative to vehicle control = 1, protein TB927.10.5330 40S RIBOSOMAL PROTEIN S18, PUTATIVE): 0.96 | fold change (relative to vehicle control = 1, protein TB927.10.6670 DYNEIN LIGHT CHAIN, PUTATIVE): 0.94 | fold change (relative to vehicle control = 1, protein TB927.2.2440 […]-ATPASE SUBUNIT 6): 1.1 | fold change (relative to vehicle control = 1, protein TB927.3.1120 GTP-BINDING NUCLEAR PROTEIN RTB2, PUTATIVE): 0.95 | fold change (relative to vehicle control = 1, protein TB927.3.3490 HIGH MOBILITY GROUP PROTEIN, PUTATIVE): 0.99 | fold change (relative to vehicle control = 1, protein TB927.4.4650 […] SYNTHASE, PUTATIVE): 0.56 | fold change (relative to vehicle control = 1, protein TB927.4.5310 SERINE/THREONINE-PROTEIN KINASE A, PUTATIVE): 0.97 | fold change (relative to vehicle control = 1, protein TB927.5.1930 HY[…], CONSERVED): 0.99 | fold change (relative to vehicle control = 1, protein TB927.6.2200 HY[…], CONSERVED): 0.99 | fold change (relative to vehicle control = 1, protein TB927.6.4140 PAR[…] COMPONENT, PUTATIVE): 0.94 | fold change (relative to vehicle control = 1, protein TB927.7.2700 NADH-CYTOCHROME B5 REDUCTASE, PUTATIVE): 0.78 | fold change (relative to vehicle control = 1, protein TB927.7.4480 ADENOSINE 5'-[…], PUTATIVE): 0.99 | fold change (relative to vehicle control = 1, protein TB927.8.1510 ATP-DEPENDENT DEAD/H RNA HELICASE, PUTATIVE): 0.99 | fold change (vs vehicle control, protein ADENOSINE TRANSPORTER 1 (CZT00028614.1)): 1.29 | fold change (vs vehicle control, protein TB11.01.4370 HY[…], CONSERVED): 0.99 | fold change (vs vehicle control, protein TB11.02.1220 […] SUBUNIT 2): 0.97 | fold change (vs vehicle control, protein TB427TMP.01.1540 HY[…], CONSERVED): 1.1 | fold change (vs vehicle control, protein TB427TMP.01.5690 DRBD4): 0.99 | fold change (vs vehicle control, protein TB427TMP.01.8510 T-COMPLEX PROTEIN 1, ALPHA SUBUNIT, PUTATIVE): 0.81 | fold change (vs vehicle control, protein TB427TMP.02.5620 Tb427tmp.02.5620): 0.97 | fold change (vs vehicle control, protein TB427TMP.160.4240 […] PROTEIN-LIKE PROTEIN): 0.98 | fold change (vs vehicle control, protein TB427TMP.211.2730 GIM5A PROTEIN): 1.45 | fold change (vs vehicle control, protein TB427.03.4910 SIGNAL PEPTIDE PEPTIDASE, PUTATIVE): 1 | fold change (vs vehicle control, protein TB427.05.2890 HY[…], CONSERVED): 0.9 | fold change (vs vehicle control, protein TB427.05.3170 RIBOSE-PHOSPHATE PYROPHOSPHOKINASE, PUTATIVE): 1.2 | fold change (vs vehicle control, protein TB427.06.3630 SPHINGOSINE 1-PHOSPHATE LYASE, PUTATIVE): 0.97 | fold change (vs vehicle control, protein TB427.06.4770 HY[…], CONSERVED): 1 | fold change (vs vehicle control, protein TB427.08.550 PEPTIDE […] REDUCTASE, PUTATIVE): 0.93 | fold change (vs vehicle control, protein TB427.10.1170 INTR[…] PROTEIN IFT172, PUTATIVE): 0.83 | fold change (vs vehicle control, protein TB427.10.13660 HY[…], CONSERVED): 0.93 | fold change (vs vehicle control, protein TB427.10.14550 ATP-DEPENDENT DEAD/H RNA HELICASE, PUTATIVE): 1.1 | fold change (vs vehicle control, protein TB427.10.1510 NOT1): 0.9 | fold change (vs vehicle control, protein TB427.10.2290 CHAPERONE PROTEIN DNAJ, PUTATIVE): 0.96 | fold change (vs vehicle control, protein TB427.10.8190 T-COMPLEX PROTEIN 1, THETA SUBUNIT, PUTATIVE): 0.91 | fold change (vs vehicle control, protein TB927.10.2100 […] 1-ALPHA): 0.99 | fold change (vs vehicle control, protein TB927.10.540 ATP-DEPENDENT DEAD/H RNA HELICASE, PUTATIVE): 0.95 | fold change (vs vehicle control, protein TB927.2.4930 ESTERASE, PUTATIVE): 0.94 | fold change (vs vehicle control, protein TB927.5.1630 HY[…], CONSERVED): 0.99 | fold change (vs vehicle control, protein TB927.7.2750 PROTEIN KINASE, PUTATIVE): 0.79 | fold change (vs vehicle control, protein TB927.8.4330 SMALL GTP-BINDING PROTEIN RAB11): 1
